Assays:
Assay in all cases: relative viability (nuclei count vs DMSO), 5 days (fraction); higher = more cells survive
[1] = compound: C1CN(CCN1)C2=CC=C(C=C2)C3=CN4C(=C(C=N4)C5=CC=NC6=CC=CC=C56)N=C3 [DM3189] + C[C@@H](Oc1cc(-c2cnn(C3CCNCC3)c2)cnc1N)c1c(Cl)ccc(F)c1Cl [Crizotinib] (partner 1 µM)
In short: (§1)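 Five library-drug doses in √10 steps were combined with a fixed anchor-drug dose, or a single drug was given alone, by pin tool to lung cancer cell lines in 1536-well plates the day after seeding. Nuclei were stained and counted after 5 days. Relative viability is the nuclei count in treated wells over that in vehicle wells, taken as the median of duplicate plates.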

[2] = compound: C1CN(CCN1)C2=CC=C(C=C2)C3=CN4C(=C(C=N4)C5=CC=NC6=CC=CC=C56)N=C3 [DM3189] + CS(=O)(=O)N1CCN(Cc2cc3nc(-c4cccc5[nH]ncc45)nc(N4CCOCC4)c3s2)CC1 [Pictilisib] (partner 1 µM)
In short: as §1

[3] = compound: C1CN(CCN1)C2=CC=C(C=C2)C3=CN4C(=C(C=N4)C5=CC=NC6=CC=CC=C56)N=C3 [DM3189] + Cc1nc(NC(=O)N2CCC[C@H]2C(N)=O)sc1-c1ccnc(C(C)(C)C(F)(F)F)c1 [Alpelisib] (partner 2 µM)
In short: as §1

[4] = compound: C1CN(CCN1)C2=CC=C(C=C2)C3=CN4C(=C(C=N4)C5=CC=NC6=CC=CC=C56)N=C3 [DM3189] + O=C(c1cc(Cc2n[nH]c(=O)c3ccccc23)ccc1F)N1CCN(C(=O)C2CC2)CC1 [Olaparib] (partner 8 µM)
In short: as §1

[5] = compound: C1CN(CCN1)C2=CC=C(C=C2)C3=CN4C(=C(C=N4)C5=CC=NC6=CC=CC=C56)N=C3 [DM3189] + C[C@]1(O)C[C@@H](c2nc(-c3ccc4ccc(-c5ccccc5)nc4c3)c3c(N)nccn32)C1 [Linsitinib] (partner 1 µM)
In short: as §1

[6] = compound: C1CN(CCN1)C2=CC=C(C=C2)C3=CN4C(=C(C=N4)C5=CC=NC6=CC=CC=C56)N=C3 [DM3189] + CS(=O)(=O)CCNCc1ccc(-c2ccc3ncnc(Nc4ccc(OCc5cccc(F)c5)c(Cl)c4)c3c2)o1 [Lapatinib] (partner 2 µM)
In short: as §1

[7] = compound: C1CN(CCN1)C2=CC=C(C=C2)C3=CN4C(=C(C=N4)C5=CC=NC6=CC=CC=C56)N=C3 [DM3189] + CC(C)C[C@H](NC(=O)[C@H](Cc1ccccc1)NC(=O)c1cnccn1)B(O)O [Bortezomib] (partner 0.002 µM)
In short: as §1

[8] = compound: C1CN(CCN1)C2=CC=C(C=C2)C3=CN4C(=C(C=N4)C5=CC=NC6=CC=CC=C56)N=C3 [DM3189] + COc1cc2c(Oc3ccc(NC(=O)C4(C(=O)Nc5ccc(F)cc5)CC4)cc3F)ccnc2cc1OCCCN1CCOCC1 [Foretinib] (partner 0.25 µM)
In short: as §1

[9] = compound: C1CN(CCN1)C2=CC=C(C=C2)C3=CN4C(=C(C=N4)C5=CC=NC6=CC=CC=C56)N=C3 [DM3189] + CC1(C)CCC(c2ccc(Cl)cc2)=C(CN2CCN(c3ccc(C(=O)NS(=O)(=O)c4ccc(N[C@H](CCN5CCOCC5)CSc5ccccc5)c(S(=O)(=O)C(F)(F)F)c4)cc3)CC2)C1 [Navitoclax] (partner 0.5 µM)
In short: as §1

[10] = compound: C1CN(CCN1)C2=CC=C(C=C2)C3=CN4C(=C(C=N4)C5=CC=NC6=CC=CC=C56)N=C3 [DM3189]
In short: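 In 1536-well plates, lung cancer cell lines rested overnight at 37 °C before five library-drug doses (not always all listed), √10 apart, were pinned onto vehicle-anchored plates. Nuclei were counted with MetaXpress from 4× Hoechst images taken after 5 days without medium change. Viability compares treated-well with vehicle-well nuclei as a median over plates, and plates needed control CV below 25% plus at least one doubling to pass.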

Cell Line	relative viability ([1]; first compound 0.08 µM)	relative viability ([1]; first compound 0.253 µM)	relative viability ([1]; first compound 0.8 µM)	relative viability ([1]; first compound 2.53 µM)	relative viability ([2]; first compound 0.08 µM)	relative viability ([2]; first compound 0.253 µM)	relative viability ([2]; first compound 0.8 µM)	relative viability ([2]; first compound 2.53 µM)	relative viability ([3]; first compound 0.08 µM)	relative viability ([3]; first compound 0.253 µM)	relative viability ([3]; first compound 0.8 µM)	relative viability ([3]; first compound 2.53 µM)	relative viability ([4]; first compound 0.08 µM)	relative viability ([4]; first compound 0.253 µM)	relative viability ([4]; first compound 0.8 µM)	relative viability ([4]; first compound 2.53 µM)	relative viability ([5]; first compound 0.08 µM)	relative viability ([5]; first compound 0.253 µM)	relative viability ([5]; first compound 0.8 µM)	relative viability ([5]; first compound 2.53 µM)	relative viability ([6]; first compound 0.08 µM)	relative viability ([6]; first compound 0.253 µM)	relative viability ([6]; first compound 0.8 µM)	relative viability ([6]; first compound 2.53 µM)	relative viability ([7]; first compound 0.08 µM)	relative viability ([7]; first compound 0.253 µM)	relative viability ([7]; first compound 0.8 µM)	relative viability ([7]; first compound 2.53 µM)	relative viability ([8]; first compound 0.08 µM)	relative viability ([8]; first compound 0.253 µM)	relative viability ([8]; first compound 0.8 µM)	relative viability ([8]; first compound 2.53 µM)	relative viability ([9]; first compound 0.08 µM)	relative viability ([9]; first compound 0.253 µM)	relative viability ([9]; first compound 0.8 µM)	relative viability ([9]; first compound 2.53 µM)	relative viability ([10]; 0.08 µM)	relative viability ([10]; 0.253 µM)	relative viability ([10]; 0.8 µM)	relative viability ([10]; 2.53 µM)
Calu-6	0.895	0.788	0.732	0.544	0.876	0.658	0.657	0.692	1.06	0.855	0.702	0.77	0.625	0.529	0.45	0.608	0.975	0.958	0.703	0.763	0.998	0.905	0.822	0.885	0.997	0.941	0.816	0.784	0.901	0.768	0.715	0.765	0.819	0.678	0.705	0.486	1.03	0.966	0.812	1.03
EBC-1	0.196	0.183	0.164	0.179	0.419	0.435	0.344	0.285	0.864	0.759	0.817	0.985	0.858	0.778	0.71	0.673	0.993	0.965	0.869	1.06	0.228	0.214	0.214	0.2	0.63	0.611	0.483	0.551	0.11	0.106	0.0886	0.0977	0.48	0.356	0.478	0.391	0.974	0.989	0.963	1.07
NCI-H1299	0.99	0.914	0.924	0.983	0.911	0.776	0.59	0.495	1.09	1.07	0.968	1.15	0.963	0.922	0.753	1.05	0.998	1.01	0.958	1.06	1.01	0.926	0.899	0.94	1.06	1.01	1.01	1.01	1.09	0.996	1.06	1.08	1.03	0.985	1.02	1.03	0.967	0.987	0.976	1.04

— the supplement of paper PMC10307832
